# Reference: patent US10702498B2 (priority 2015, dated 2020)
# Read-outs that look alike come from different tables or passages of the source.
# How the values were obtained:
# [1] = biological target: humanDOR (Homo sapiens (Human), UniProt P41143); experiment: Receptor binding, [3H]diprenorphine
# [2] = biological target: hKOR (Homo sapiens (Human), UniProt P41145); experiment: Receptor binding, [3H]diprenorphine
# [3] = biological target: MOR (Homo sapiens (Human), UniProt P35372); experiment: Receptor binding, [3H]diprenorphine
# [4] = biological target: T1, μOR (Homo sapiens (Human), UniProt P35372); experiment: cell-based; format: cell-based
# [5] = biological target: μOR β-arrestin2 recruitment (Homo sapiens (Human), UniProt P35372); experiment: β-Arrestin2 recruitment without GRK2 co-expression (BRET); format: cell-based
# [6] = biological target: human μOR β-arrestin2 recruitment + GRK2 (Homo sapiens (Human), UniProt P35372); experiment: β-Arrestin2 recruitment with GRK2 co-expression (BRET); format: cell-based; details: GRK2 co-expressed
# [7] = biological target: T1, μOR; experiment: BRET-based cAMP accumulation assay (Gi/o signaling, SAR of PZM21-29); format: cell-based; details: for loss of potency in Gi/o signaling assay: compared to parent reference compound (PZM22)
# [8] = read-out: binding affinity Ki [nM] hDOR
# Chain of humanDOR (P41143 whole entry): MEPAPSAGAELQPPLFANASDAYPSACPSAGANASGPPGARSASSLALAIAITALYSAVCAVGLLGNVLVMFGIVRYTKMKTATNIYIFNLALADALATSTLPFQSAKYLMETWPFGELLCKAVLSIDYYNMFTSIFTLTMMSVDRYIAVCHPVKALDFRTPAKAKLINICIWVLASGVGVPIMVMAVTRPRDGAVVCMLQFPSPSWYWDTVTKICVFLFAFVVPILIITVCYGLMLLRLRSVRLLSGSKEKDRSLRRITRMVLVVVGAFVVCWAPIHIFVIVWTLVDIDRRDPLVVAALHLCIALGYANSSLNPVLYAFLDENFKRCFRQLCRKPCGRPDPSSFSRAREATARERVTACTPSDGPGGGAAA
# Chain of MOR (P35372 whole entry): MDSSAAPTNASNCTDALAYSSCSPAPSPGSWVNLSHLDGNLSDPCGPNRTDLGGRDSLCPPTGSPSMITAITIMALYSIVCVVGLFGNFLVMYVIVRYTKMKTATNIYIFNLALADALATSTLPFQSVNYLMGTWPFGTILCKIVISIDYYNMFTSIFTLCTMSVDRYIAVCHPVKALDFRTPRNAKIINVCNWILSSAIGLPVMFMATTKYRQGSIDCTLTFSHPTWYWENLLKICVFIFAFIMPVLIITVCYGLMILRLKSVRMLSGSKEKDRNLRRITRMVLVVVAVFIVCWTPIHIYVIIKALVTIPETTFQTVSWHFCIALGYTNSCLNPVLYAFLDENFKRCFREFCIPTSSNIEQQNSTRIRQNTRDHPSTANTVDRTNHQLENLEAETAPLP
# Chain of hKOR (P41145 whole entry): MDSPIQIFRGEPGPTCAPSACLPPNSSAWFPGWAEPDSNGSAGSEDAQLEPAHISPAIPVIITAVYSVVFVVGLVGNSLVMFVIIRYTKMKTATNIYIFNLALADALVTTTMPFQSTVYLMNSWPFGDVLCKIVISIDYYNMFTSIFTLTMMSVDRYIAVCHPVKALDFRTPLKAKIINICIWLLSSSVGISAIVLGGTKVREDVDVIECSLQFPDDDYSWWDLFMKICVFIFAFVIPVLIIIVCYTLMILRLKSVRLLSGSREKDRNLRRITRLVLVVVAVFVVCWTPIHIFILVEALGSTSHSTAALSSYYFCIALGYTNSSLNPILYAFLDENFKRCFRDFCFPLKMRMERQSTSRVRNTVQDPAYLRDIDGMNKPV
compound,measurement,setting,value
CC(Cc1csc2ccccc12)NC(=O)NC[C@H](Cc1ccc(O)cc1)N(C)C (mixture of isomers) [DD 63L-RS],Ki,[1],44 ± 1.4 nM
same,Ki,[1]; [8],44 nM
same,Ki,[2]; binding affinity Ki [nM] hKOR,19 nM
same,Ki,[2]; hKOR [3H]dyprenorphine Ki,14 ± 0.71 nM
same,Ki,[3]; binding affinity Ki [nM] hMOR,14 nM
same,Ki,[3]; hMOR [3H]dyprenorphine Ki,16 ± 1.4 nM
C[C@H](Cc1ccsc1)NC(=O)NC[C@H](Cc1ccccc1)N(C)C (stereo in doubt) [BD 127LR],Ki,[1],1800 ± 150 nM
same,Ki,[1]; [8],1800 nM
same,Ki,[2]; binding affinity Ki [nM] hKOR,1300 nM
same,Ki,[2]; hKOR [3H]dyprenorphine Ki,1300 ± 300 nM
"C[C@H](Cc1ccsc1)NC(=O)NC[C@H](Cc1ccc(O)cc1)N(C)C [(S,R)-21, 1-[(S)-2-(Dimethylamino)-3-(4-hydroxyphenyl)propyl]-3-((R)-1-(thiophen-3-yl)propan-2-yl)urea]",Gi/o activation / μOR agonist activity,[4],"more potent partial agonist of the μOR as compared to (S,S)-21"
"C[C@@H](Cc1ccsc1)NC(=O)NC[C@H](Cc1ccccc1)N(C)C [(S,S)-12, 1-[(S)-2-(Dimethylamino)-3-phenylpropyl]-3-[(S)-1-(thiophen-3-yl)propan-2-yl]urea]",Gi/o activation / μOR agonist activity,[4],most potent and efficacious Gi/o signaling agonist among the four isomers
"CN(CCCl)[C@H](CNC(=O)NCCc1ccccc1)Cc1ccc(O)cc1 [DD185, (S)-1-(2-((2-chloroethyl)(methyl)amino)-3-(4-hydroxyphenyl)propyl)-3-phenethylurea]",Ki,[1],360 nM
"CN(CCO)[C@H](CNC(=O)NCCc1ccccc1)Cc1ccc(O)cc1 [DD186, (S)-1-(2-((2-hydroxyethyl)(methyl)amino)-3-(4-hydroxyphenyl)propyl)-3-phenethylurea]",Ki,[1],1800 nM
same,Ki,[2],1300 nM
same,Ki,[3],970 nM
"C[C@@H](Cc1ccsc1)NC(=O)NC[C@H](Cc1ccc(O)cc1)N(C)Cc1ccccc1 [DD187, 1-((S)-2-(benzyl(methyl)amino)-3-(4-hydroxyphenyl)propyl)-3-((S)-1-(thiophen-3-yl)propan-2-yl)urea]",Ki,[1],720 nM
same,Ki,[2],210 nM
same,Ki,[3],220 nM
"COc1ccccc1CCNC(=O)NC[C@H](Cc1ccc(O)cc1)N(C)C [DD198, (S)-1-(2-(dimethylamino)-3-(4-hydroxyphenyl)propyl)-3-(2-methoxyphenethyl)urea]",Ki,[1],150 nM
same,Ki,[2]; binding affinity Ki [nM] hKOR,140 nM
same,Ki,[3]; binding affinity Ki [nM] hMOR,22 nM
"COc1cccc(CCNC(=O)NC[C@H](Cc2ccc(O)cc2)N(C)C)c1 [DD200, (S)-1-(2-(dimethylamino)-3-(4-hydroxyphenyl)propyl)-3-(3-methoxyphenethyl)urea]",Ki,[1],220 nM
same,Ki,[2],1300 nM
same,Ki,[3],110 nM
"COc1ccc(CCNC(=O)NC[C@H](Cc2ccc(O)cc2)N(C)C)cc1 [DD201, (S)-1-(2-(dimethylamino)-3-(4-hydroxyphenyl)propyl)-3-(4-methoxyphenethyl)urea]",Ki,[1],10000 nM
same,Ki,[2],1500 nM
same,Ki,[3],330 nM
"CN(C)[C@H](CNC(=O)NC(C)(C)Cc1ccsc1)Cc1ccc(O)cc1 [DD 32L, (S)-1-(2-(dimethylamino)-3-(4-hydroxyphenyl)propyl)-3-(2-methyl-1-(thiophen-3-yl)propan-2-yl)urea]",Gi/o pEC50,[4],7.629
same,Arrestin pEC50,[5],8.282
same,Arrestin + GRK2 pEC50,[6],7.306
"CN(C)[C@H](CNC(=O)NC(C)(C)Cc1ccccc1)Cc1ccc(O)cc1 [DD 33L, (S)-1-(2-(dimethylamino)-3-(4-hydroxyphenyl)propyl)-3-(2-methyl-1-phenylpropan-2-yl)urea]",Gi/o pEC50,[4],7.008
same,Arrestin + GRK2 pEC50,[6],6.874
"C[C@@H](Cc1ccsc1)NC(=O)NC[C@H](Cc1cccc(O)c1)N(C)C [DD 47LS, 1-((S)-2-(dimethylamino)-3-(3-hydroxyphenyl)propyl)-3-((S)-1-(thiophen-3-yl)propan-2-yl)urea]",Gi/o pEC50,[4],7.77
same,Arrestin pEC50,[5],6.447
same,Arrestin + GRK2 pEC50,[6],6.676
"C[C@H](NC(=O)NC[C@H](Cc1ccc(O)cc1)N(C)C)c1ccccc1 [DD 53LS, 1-((S)-2-(dimethylamino)-3-(4-hydroxyphenyl)propyl)-3-((S)-1-phenylethyl)urea]",Gi/o pEC50,[4],8.512
same,Arrestin pEC50,[5],7.168
same,Arrestin + GRK2 pEC50,[6],7.059
"C[C@@H](Cc1ccccc1)NC(=O)NC[C@H](Cc1ccc(O)cc1)N(C)C [DD 61L-B, 1-((S)-2-(dimethylamino)-3-(4-hydroxyphenyl)propyl)-3-((S)-1-phenylpropan-2-yl)urea]",Gi/o pEC50,[4],7.45
same,Arrestin pEC50,[5],7.075
same,Arrestin + GRK2 pEC50,[6],6.556
C[C@@H](Cc1csc2ccccc12)NC(=O)NC[C@H](Cc1ccc(O)cc1)N(C)C [DD 63L-LB],Gi/o pEC50,[4],8.244
same,Arrestin pEC50,[5],6.401
same,Arrestin + GRK2 pEC50,[6],7.086
"CN(C)[C@H](CNC(=S)NCCc1ccsc1)Cc1ccc(O)cc1 [DD 81, (S)-1-(2-(dimethylamino)-3-(4-hydroxyphenyl)propyl)-3-(2-(thiophen-3-yl)ethyl)thiourea]",Gi/o pEC50,[4],7.821
same,Arrestin pEC50,[5],7.604
same,Arrestin + GRK2 pEC50,[6],7.173
CN(C)[C@H](CNC(=O)NCCc1ccccc1)Cc1ccc(O)cc1 [DD 90],Gi/o pEC50,[4],8.371
same,Arrestin pEC50,[5],7.272
same,Arrestin + GRK2 pEC50,[6],6.841
C=CCN(CC(Cc1ccccc1)N(C)C)C(=O)N[C@@H](C)Cc1ccsc1 (stereo partly shown) [DD 93A],Ki,[1]; [8],~15000 nM
C=CCN(CC(Cc1ccccc1)N(C)C)C(=O)N[C@H](C)Cc1ccsc1 (stereo partly shown) [DD 93B],Ki,[1]; [8],~15000 nM
CN(CCc1ccccc1)C(=O)NC[C@H](Cc1ccc(O)cc1)N(C)C [DD 102],Gi/o pEC50,[4],7.421
same,Arrestin pEC50,[5],5.703
same,Arrestin + GRK2 pEC50,[6],5.824
CN(C[C@H](Cc1ccc(O)cc1)N(C)C)C(=O)NCCc1ccccc1 [DD 108],Gi/o pEC50,[4],7.455
same,Arrestin pEC50,[5],5.327
same,Arrestin + GRK2 pEC50,[6],5.826
"C[C@@H](Cc1ccsc1)NC(=O)NC[C@H](Cc1ccc(O)c(CO)c1)N(C)C [DD 131, 1-((S)-2-(dimethylamino)-3-(4-hydroxy-3-(hydroxymethyl)phenyl)propyl)-3-((S)-1-(thiophen-3-yl)propan-2-yl)urea]",Gi/o pEC50,[4],8.1
same,Arrestin pEC50,[5],6.639
same,Arrestin + GRK2 pEC50,[6],6.671
"CN(C)[C@H](CNC(=O)NCCCN1C(=O)C=CC1=O)Cc1ccc(O)cc1 [DD 138, (S)-1-(2-(dimethylamino)-3-(4-hydroxyphenyl)propyl)-3-(3-(2,5-dioxo-2,5-dihydro-1H-pyrrol-1-yl)propyl)urea]",Ki,[3]; binding affinity Ki [nM] hMOR,580 nM
"CN(C)[C@H](CNC(=O)NCCc1cn(Cc2ccccc2)nn1)Cc1ccc(O)cc1 [DD 154, (S)-1-(2-(1-benzyl-1H-1,2,3-triazol-4-yl)ethyl)-3-(2-(dimethylamino)-3-(4-hydroxyphenyl)propyl)urea]",Ki,[1],580 nM
"CN(C)[C@H](CNC(=O)NCCc1cn(CCOCCOCCN=[N+]=[N-])nn1)Cc1ccc(O)cc1 [DD 161, (S)-1-(2-(1-(2-(2-(2-azidoethoxy)ethoxy)ethyl)-1H-1,2,3-triazol-4-yl)ethyl)-3-(2-(dimethylamino)-3-(4-hydroxyphenyl)propyl)urea]",Ki,[1],3000 nM
same,Ki,[2],1200 nM
"CN(C)[C@H](CNC(=O)NCCc1cn(CCOCCOCCOCCN=[N+]=[N-])nn1)Cc1ccc(O)cc1 [DD 165, (S)-1-(2-(1-(2-(2-(2-(2-azidoethoxy)ethoxy)ethoxy)ethyl)-1H-1,2,3-triazol-4-yl)ethyl)-3-(2-(dimethylamino)-3-(4-hydroxyphenyl)propyl)urea]",Ki,[1],3900 nM
same,Ki,[2]; binding affinity Ki [nM] hKOR,2900 nM
"CN(C)[C@H](CNC(=O)NCCc1cn(CCOCCOCCOCCOCCOCCNC(=O)CCCC[C@@H]2SC[C@@H]3NC(=O)N[C@@H]32)nn1)Cc1ccc(O)cc1 [DD 170, N-(17-(4-(2-(3-((S)-2-(dimethylamino)-3-(4-hydroxyphenyl)propyl)ureido)ethyl)-1H-1,2,3-triazol-1-yl)-3,6,9,12,15-pentaoxaheptadecyl)-5-((3aS,4S,6aR)-2-oxohexahydro-1H-thieno[3,4-d]imidazol-4-yl)pentanamide]",Ki,[3]; read-out: binding affinity Ki [nM] hMOR,13000 nM
CN(CC1CC1)[C@H](CNC(=O)NCCc1ccccc1)Cc1ccc(O)cc1 [DD 184],Gi/o pEC50,[4],6.253
"CN(C)[C@H](CNC(=O)NCCc1ccccc1F)Cc1ccc(O)cc1 [DDLM-08, (S)-1-(2-(dimethylamino)-3-(4-hydroxyphenyl)propyl)-3-(2-fluorophenethyl)urea]",Ki,[1],53 nM
same,Ki,[2]; binding affinity Ki [nM] hKOR,440 nM
same,Ki,[3]; binding affinity Ki [nM] hMOR,43 nM
"CN(C)[C@H](CNC(=O)NCCc1cccc(F)c1)Cc1ccc(O)cc1 [DDLM-10, (S)-1-(2-(dimethylamino)-3-(4-hydroxyphenyl)propyl)-3-(3-fluorophenethyl)urea]",Ki,[1],250 nM
same,Ki,[2]; binding affinity Ki [nM] hKOR,170 nM
same,Ki,[3]; binding affinity Ki [nM] hMOR,36 nM
"CN(C)[C@H](CNC(=O)NCCc1ccc(F)cc1)Cc1ccc(O)cc1 [DDLM-15, (S)-1-(2-(dimethylamino)-3-(4-hydroxyphenyl)propyl)-3-(4-fluorophenethyl)urea]",Ki,[1],250 nM
same,Ki,[2]; binding affinity Ki [nM] hKOR,190 nM
same,Ki,[3]; binding affinity Ki [nM] hMOR,27 nM
"CN(CC1CC1)[C@H](CNC(=O)NCCc1ccccc1)Cc1ccc(O)cc1 [PZM27, (S)-1-(2-((Cyclopropylmethyl)(methyl)amino)-3-(4-hydroxyphenyl)propyl)-3-phenethylurea×CF3COOH]",agonist efficacy / potency in Gi/o signaling assay,[7],decreased efficacy
same,loss of potency in Gi/o signaling assay,[7],30 fold
"CN(C=O)[C@H](CNC(=O)NCCc1ccccc1)Cc1ccc(O)cc1 [PZM28, (S)—N-(1-(4-Hydroxyphenyl)-3-(3-phenethylureido)propan-2-yl)-N-methylformamide]",loss of potency in Gi/o signaling assay,[7],1000 fold
